Measured values as given in PMC10694602, “Binding of perilipin 3 to membranes containing diacylglycerol is mediated by conserved residues within its PAT domain” (The Journal of Biological Chemistry, 2023).
Residue numbers refer to the chain shown, from its start. Counter-ions that a name gives are not always drawn. Like-named read-outs stand apart in the source and are kept apart here.

Experiments:
[1] = target: T1, PLIN3 - Q22A S24A E86A I89G S93A (Homo sapiens, UniProt O60664, E86A/I89G/Q22A/S24A/S93A); assay: MST binding to the PLIN3 quintuple mutant; conditions: short chain lipid as free ligand; n.d.; Fig. S1
T1 construct: Plasmids containing human full-length PLIN3 or fragments thereof were obtained by PCR amplification; made in house; host or cells: Escherichia coli BL21 (DE3) or NiCo21 (DE3)
T1 sequence (O60664 1-434 Q22A/S24A/E86A/I89G/S93A): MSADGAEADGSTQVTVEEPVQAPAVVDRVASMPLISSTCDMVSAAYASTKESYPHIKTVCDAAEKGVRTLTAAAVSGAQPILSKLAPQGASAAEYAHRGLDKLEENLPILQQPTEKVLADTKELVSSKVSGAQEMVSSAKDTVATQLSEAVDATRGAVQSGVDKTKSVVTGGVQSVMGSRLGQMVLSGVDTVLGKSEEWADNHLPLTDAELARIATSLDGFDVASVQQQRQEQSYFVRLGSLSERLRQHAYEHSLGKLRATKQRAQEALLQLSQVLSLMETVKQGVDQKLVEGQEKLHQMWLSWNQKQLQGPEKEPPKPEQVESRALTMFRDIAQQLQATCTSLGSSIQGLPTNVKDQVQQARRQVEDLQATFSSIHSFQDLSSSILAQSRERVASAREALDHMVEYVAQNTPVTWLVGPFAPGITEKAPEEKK
Text: (§1) To validate this predicted mode of DAG binding by the PAT domain, we generated mutant versions of PLIN3 and assessed their impact on DAG binding by MST. First, we tested whether the simultaneous substitution of the five residues, Q22, S24, E86A, I89G, and S93A, would impact either binding of short chain DAG or that of liposomes containing low concentrations of DAG. […] To assess the impact of these residues in more detail, we first tested mutations in the two serine residues S24A and S93A. […] To confirm the importance of the glutamic acid residue at position 86 for binding of DAG, we also generated an E86A point mutant version.
(§2) Binding of purified PLIN3 protein and PLIN3 domains to liposomes, ALDs, or short chain lipids was determined by MST using a Monolith NT.115 system (Nanotemper Technologies). Proteins were labeled with a RED-tris-NTA His tag protein-labeling reagent following the manufacturer’s instructions (Nanotemper Technologies). Labeled proteins were added to a serial dilution of unlabeled lipids, liposomes, or ALDs, and the mixtures were loaded into MST standard capillaries to assess binding affinities. The dissociation constant was obtained by plotting fluorescence intensities of the protein–lipid complex against the concentrations of the unlabeled lipids, liposomes, or ALDs. […]

PLIN3 - S24A S93A = target: T2, PLIN3 - S24A S93A (Homo sapiens, UniProt O60664, S24A/S93A); assay: MST binding to the PLIN3 serine double mutant; conditions: short chain lipid as free ligand
T2 construct: Plasmids containing human full-length PLIN3 or fragments thereof were obtained by PCR amplification; made in house; host or cells: Escherichia coli BL21 (DE3) or NiCo21 (DE3)
T2 sequence (O60664 1-434 S24A/S93A): T1 sequence (O60664 1-434 Q22A/S24A/E86A/I89G/S93A) with A22Q, A86E, G89I
Text: as §1, §2

PAT domain of PLIN3 = target: T3, PAT domain of PLIN3 (Homo sapiens, UniProt O60664); assay: MST binding to the PAT domain of PLIN3; conditions: short chain lipids as free ligands; for Kd: n.d. = not detected, Fig. 2B
T3 sequence (O60664 1-107 limits assumed): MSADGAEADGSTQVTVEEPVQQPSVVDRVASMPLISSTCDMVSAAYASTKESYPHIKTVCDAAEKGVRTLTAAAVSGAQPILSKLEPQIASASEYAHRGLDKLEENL
Text: (§3) To gain further insight into the binding of PLIN3 to DAG-containing membranes, we examined the contribution of each individual domain of PLIN3 towards lipid binding, that is, the N-terminal PAT domain, the central 11-mer repeat region, and the C-terminally located 4-helix bundle (Fig. 2A). Therefore, we expressed and purified proteins harboring individual domains of PLIN3 and first examined their binding of short-chain lipids.
(§4) Binding of purified PLIN3 protein and PLIN3 domains to liposomes, ALDs, or short chain lipids was determined by MST using a Monolith NT.115 system (Nanotemper Technologies). Proteins were labeled with a RED-tris-NTA His tag protein-labeling reagent following the manufacturer’s instructions (Nanotemper Technologies). Labeled proteins were added to a serial dilution of unlabeled lipids, liposomes, or ALDs, and the mixtures were loaded into MST standard capillaries to assess binding affinities. The dissociation constant was obtained by plotting fluorescence intensities of the protein–lipid complex against the concentrations of the unlabeled lipids, liposomes, or ALDs. Experiments were performed in triplicates and data were fitted using the KD Model of the MO.Affinity Analysis software (https://nanotempertech.com/, Nanotemper Technologies).

PLIN3 = target: T4, PLIN3 (Homo sapiens, UniProt O60664); assay: Microscale thermophoresis (MST) binding of lipids, liposomes or ALDs to full-length WT PLIN3; conditions: for fold increase of PLIN3 binding versus unspiked DOPC/DOPE liposomes: DOPC/DOPE (80/20 mol%) liposomes, DAG 5 mol%, DOPA 10 mol%
T4 construct: Plasmids containing human full-length PLIN3 or fragments thereof were obtained by PCR amplification; made in house; host or cells: Escherichia coli BL21 (DE3) or NiCo21 (DE3)
T4 sequence (O60664 1-434): T1 sequence (O60664 1-434 Q22A/S24A/E86A/I89G/S93A) with A22Q, A24S, A86E, G89I, A93S
Text: To corroborate these findings, we analyzed binding of PLIN3 to liposomes using microscale thermophoresis (MST), an immobilization-free technology for measuring biomolecular interactions based on the diffusion of a fluorescently labeled protein along a microscopic temperature gradient. In this assay, the free protein diffuses faster than the one which has bound to a ligand. Ligands can range from small ions to low molecular weight compounds, liposomes, or even viruses ([24], [25], [26], [27], [28]). Variations in fluorescence intensity are then plotted against the ligand concentrations to determine a binding affinity. […] To determine the optimal DAG concentrations for PLIN3 binding, we varied the DAG concentrations in the ER-liposomes between 0 to 20 mol%.
as §4

PLIN3 - E86A = target: T5, PLIN3 - E86A (Homo sapiens, UniProt O60664, E86A); assay: MST binding to the PLIN3 point mutant; conditions: short chain lipid as free ligand
T5 construct: Plasmids containing human full-length PLIN3 or fragments thereof were obtained by PCR amplification; made in house; host or cells: Escherichia coli BL21 (DE3) or NiCo21 (DE3)
T5 sequence (O60664 1-434 E86A): T1 sequence (O60664 1-434 Q22A/S24A/E86A/I89G/S93A) with A22Q, A24S, G89I, A93S
Text: as §1, §2

4-helix bundle of PLIN3 = target: T6, 4-helix bundle of PLIN3 (Homo sapiens, UniProt O60664); assay: MST binding to the 4-helix bundle of PLIN3
T6 sequence (O60664 245-434 limits assumed): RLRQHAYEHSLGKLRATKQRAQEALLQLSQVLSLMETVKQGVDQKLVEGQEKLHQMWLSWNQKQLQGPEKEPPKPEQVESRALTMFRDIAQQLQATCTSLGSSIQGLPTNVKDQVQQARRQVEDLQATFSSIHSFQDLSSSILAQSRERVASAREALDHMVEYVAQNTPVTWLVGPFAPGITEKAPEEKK
Text: as §3, §4

PLIN3 - E86A I89G S93A = target: T7, PLIN3 - E86A I89G S93A (Homo sapiens, UniProt O60664, E86A/I89G/S93A); assay: MST binding to the PLIN3 triple mutant; conditions: short chain lipid as free ligand; n.d. = not detected; Fig. 4C
T7 construct: Plasmids containing human full-length PLIN3 or fragments thereof were obtained by PCR amplification; made in house; host or cells: Escherichia coli BL21 (DE3) or NiCo21 (DE3)
T7 sequence (O60664 1-434 E86A/I89G/S93A): T1 sequence (O60664 1-434 Q22A/S24A/E86A/I89G/S93A) with A22Q, A24S
Text: as §1, §2

[2] = target: T8, 11-mer repeat region of PLIN3 (Homo sapiens, UniProt O60664); assay: MST binding to the 11-mer repeat region of PLIN3; conditions: short chain lipids as free ligands; n.d. = not detected; Fig. 2B
T8 sequence (O60664 115-179 limits assumed): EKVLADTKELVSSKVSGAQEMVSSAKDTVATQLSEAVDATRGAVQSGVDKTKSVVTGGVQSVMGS
Text: as §3, §4

His-tagged human PLIN3 = target: T9, His-tagged human PLIN3 (Homo sapiens, UniProt O60664); assay: Liposome flotation assay on a sucrose gradient, PLIN3 detected by Western blotting; format: binding; conditions: ER-liposomes containing 16:0 DAG at 5 mol%; top layer of sucrose gradient
T9 construct: Plasmids containing human full-length PLIN3 or fragments thereof were obtained by PCR amplification; made in house; host or cells: Escherichia coli BL21 (DE3) or NiCo21 (DE3)
T9 sequence (O60664 1-434): T1 sequence (O60664 1-434 Q22A/S24A/E86A/I89G/S93A) with A22Q, A24S, A86E, G89I, A93S
Procedure: To examine the interaction between soluble PLIN3 and membranes containing DAG, we first performed liposome-binding assays. Therefore, purified His-tagged human PLIN3 was incubated with liposomes prepared from a phospholipid mixture that mimics the composition of the ER membrane (DOPC/DOPE/DOPS/DOPA/SoyPI, 53/23/8/5/11 mol%; hereafter termed ER-liposomes) lacking or containing low concentrations of DAG (16:0 DAG; 5 mol%). Liposomes were then floated on a sucrose gradient, and PLIN3 binding was monitored by Western blotting.
Purified PLIN3 was incubated with liposomes for 1 h at RT and then gently mixed with an equal volume of 60% (w/v) sucrose solution in liposome buffer to obtain a final sucrose concentration of 30%. This mixture was overlaid with two volumes of 20% sucrose solution, two volumes of 10% sucrose solution, and one volume of liposome buffer. The samples were centrifuged at 177,000g for 1 h at 20 °C. Four fractions were collected from the top of the gradient and the distribution of PLIN3 was analyzed by Western blotting. Signal intensities were quantified using ImageJ (https://imagej.net/ij/) software.

[3] = short chain lipid as free ligand, Fig. 1I, Fig. 4C, read-out: KD
[4] = ER-liposomes supplemented with the named DAG at 5 mol%, KD against liposome concentration, Fig. 1C, read-out: KD

CCCCCCCC(=O)OC[C@H](CO)OC(=O)CCCCCCC [8:0 DAG, 1,2-dioctanoyl-sn-glycerol]
KD [1]: failed to bind | fold decreased affinity versus WT PLIN3 (PLIN3 - S24A S93A): 20.9 fold | Kd (PLIN3 - S24A S93A; Fig. S1): 2.09 µM | fold stronger binding than 8:0 PA (PAT domain of PLIN3): 36 fold | Kd (PAT domain of PLIN3): 0.39 µM | Kd (PLIN3; [3]): 0.1 µM | fold less efficient binding than WT PLIN3 (PLIN3 - E86A): 873 fold | Kd (PLIN3 - E86A; Fig. 4C): 87.3 µM | Kd (4-helix bundle of PLIN3; short chain lipids as free ligands, n.d. = not detected, Fig. 2B, read-out: KD 4-helix): 20.7 µM | KD (PLIN3 - E86A I89G S93A): failed to bind

CCCCCCCC(=O)OC[C@H](COP(=O)(O)OC[C@H](N)C(=O)O)OC(=O)CCCCCCC [8:0 PS, 1,2-dioctanoyl-sn-glycero-3-phospho-L-serine sodium salt]
Kd [2]: 471 ± 53.8 µM | Kd (PAT domain of PLIN3): 106 ± 30.5 µM

CCCCCCC(=O)OC[C@H](COP(=O)([O-])OCC[N+](C)(C)C)OC(=O)CCCCCC [7:0 PC, 1,2-diheptanoyl-sn-glycero-3-phosphocholine]
Kd (PLIN3): 214 ± 71 µM | Kd (4-helix bundle of PLIN3): 88.5 ± 28.8 µM

CCCCCCCC(=O)OC[C@H](COP(=O)(O)O)OC(=O)CCCCCCC [8:0 PA, 1,2-dioctanoyl-sn-glycero-3-phosphate sodium salt]
Kd (PAT domain of PLIN3): 14.1 µM

CCCCCCCC(=O)OCC(COC(=O)CCCCCCC)OC(=O)CCCCCCC [8:0 TAG, 1,2,3-trioctanoylglycerol]
Kd (PAT domain of PLIN3): 17.3 µM | Kd (PLIN3; [3]): 0.27 µM

CCCCCCCC/C=C\CCCCCCCC(=O)OC[C@H](COP(=O)(O)O)OC(=O)CCCCCCC/C=C\CCCCCCCC [18:1 PA, 1,2-dioleoyl-sn-glycero-3-phosphate]
fold increase of PLIN3 binding versus unspiked DOPC/DOPE liposomes (PLIN3): 9 fold | Kd (PLIN3; PC/PE liposomes (DOPC/DOPE; 80/20 mol%) spiked with the named lipid at 10 mol%, n.d. = not detected, Fig. 1H, read-out: KD): 58.1 µM

CCCCCCCC/C=C\CCCCCCCC(=O)OC[C@H](CO)OC(=O)CCCCCCC/C=C\CCCCCCCC [18:1 DAG, 1,2-dioleoyl-sn-glycerol]
Kd (PLIN3; [4]): 60.1 µM

CC(C)CCC[C@@H](C)[C@H]1CC[C@H]2[C@@H]3CC=C4C[C@@H](O)CC[C@]4(C)[C@H]3CC[C@]12C [cholesterol]
Kd (PLIN3; ER-liposomes supplemented with 20 mol% cholesterol, Fig. 1E, read-out: KD): 64.9 µM

CCCCCCCCCCCCCCCC(=O)OC[C@H](CO)OC(=O)CCCCCCCCCCCCCCC [16:0 DAG, 1,2-dipalmitoyl-sn-glycerol]
fold increase of PLIN3 binding versus unspiked DOPC/DOPE liposomes (PLIN3): 36 fold | fold lower dissociation constant than ER-liposomes lacking DAG (PLIN3; ER-liposomes containing 16:0 DAG at 5 mol%): 29 fold | Kd (PLIN3; [4]): 20.6 µM | Kd (PLIN3; PC/PE liposomes (DOPC/DOPE; 80/20 mol%) spiked with 16:0 DAG at 5 mol%, Fig. 1H, read-out: KD): 15 µM | fraction of PLIN3 recovered from liposomes (His-tagged human PLIN3): 13.9%
